{"source": "patent US20230293526A1", "about": "“METHOD FOR TREATING CANCER WITH A REVERSE TRANSCRIPTASE INHIBITOR” (PrimeFour Therapeutics, Inc., priority 2020, published 2023)", "test_in_all_cases": "Cell proliferation Ex.3", "format_in_all_cases": "cell-based", "key": {"[1]": {"test_system": "A2780", "conditions": "Homo sapiens", "protocol": "(§1) A dose response relationship on cell proliferation was assessed for Compound 13 on 140 tumor cell lines. […] Cells were cultured in the appropriate media. For the assays, cells were seeded in white cell culture-treated flat and clear bottom multiwell plates and incubated at 37° C. overnight before compound was added. […] on the medium, cell plates were equilibrated to room temperature for one hour, CellTiterGlo reagent (Promega) was added and luminescence was measured approximately an hour later using a luminometer. Raw data were converted into percent cell viability relative to the high and low control, which were set to 10000 and 000, respectively."}, "[2]": {"test_system": "A375", "conditions": "Homo sapiens, A-375", "protocol": "as §1"}, "[3]": {"test_system": "A673", "conditions": "Homo sapiens", "protocol": "as §1"}, "[4]": {"test_system": "COLO678", "conditions": "Homo sapiens, COLO-678", "protocol": "as §1"}, "[5]": {"test_system": "EFO21", "conditions": "Homo sapiens, EFO-21", "protocol": "as §1"}, "[6]": {"test_system": "HEK293", "conditions": "Homo sapiens", "protocol": "as §1"}, "[7]": {"test_system": "HEPG2", "conditions": "Homo sapiens", "protocol": "as §1"}, "[8]": {"test_system": "HT1080", "conditions": "Homo sapiens, HT-1080", "protocol": "as §1"}, "[9]": {"test_system": "IGROV1", "conditions": "Homo sapiens, IGROV-1", "protocol": "as §1"}, "[10]": {"test_system": "J82", "conditions": "Homo sapiens", "protocol": "as §1"}, "[11]": {"test_system": "JIMT1", "conditions": "Homo sapiens, JIMT-1", "protocol": "as §1"}, "[12]": {"test_system": "MDAMB436", "conditions": "Homo sapiens, MDA-MB-436", "protocol": "as §1"}, "[13]": {"test_system": "MHHES1", "conditions": "Homo sapiens, MHH-ES-1", "protocol": "as §1"}, "[14]": {"test_system": "MIAPACA2", "conditions": "Homo sapiens, MIA PaCa-2", "protocol": "as §1"}, "[15]": {"test_system": "MV4-11", "conditions": "Homo sapiens", "protocol": "as §1"}, "[16]": {"test_system": "OVCAR3", "conditions": "Homo sapiens, OVCAR-3", "protocol": "as §1"}, "[17]": {"test_system": "OVCAR4", "conditions": "Homo sapiens, OVCAR-4", "protocol": "as §1"}, "[18]": {"test_system": "RDES", "conditions": "RD-ES", "protocol": "as §1"}, "[19]": {"test_system": "RD", "conditions": "Homo sapiens", "protocol": "as §1"}, "[20]": {"test_system": "SF295", "conditions": "Homo sapiens, SF-295", "protocol": "as §1"}, "[21]": {"test_system": "SKLMS1", "conditions": "Homo sapiens, SK-LMS-1", "protocol": "as §1"}, "[22]": {"test_system": "SKMEL5", "conditions": "Homo sapiens, SK-MEL-5", "protocol": "as §1"}, "[23]": {"test_system": "SKOV3", "conditions": "Homo sapiens, SK-OV-3", "protocol": "as §1"}, "[24]": {"test_system": "SNB75", "conditions": "Homo sapiens, SNB-75", "protocol": "as §1"}, "[25]": {"test_system": "U2OS", "conditions": "Homo sapiens", "protocol": "as §1"}, "[26]": {"test_system": "UO31", "conditions": "Homo sapiens, UO-31", "protocol": "as §1"}}, "note": "pIC50: −log10 of the molar value."}
{"smiles": "C#C[C@]1(CO)O[C@@H](n2cc(F)c(N)nc2=O)C[C@@H]1O", "note": "[compound 9]", "values": [{"measurement": "pIC50", "setting": "[1]; A2780, 72 h", "value": "< 5.00"}, {"measurement": "pIC50", "setting": "[1]; A2780, 120 h", "value": "< 5.00"}, {"measurement": "pIC50", "setting": "[1]; A2780, 168 h", "value": "< 5.00"}, {"measurement": "pIC50", "setting": "[2]; A375, 72 h", "value": "< 5.00"}, {"measurement": "pIC50", "setting": "[2]; A375, 120 h", "value": "< 5.00"}, {"measurement": "pIC50", "setting": "[2]; A375, 168 h", "value": "< 5.00"}, {"measurement": "pIC50", "setting": "[3]; A673, 72 h", "value": "< 5.00"}, {"measurement": "pIC50", "setting": "[3]; A673, 120 h", "value": "< 5.00"}, {"measurement": "pIC50", "setting": "[3]; A673, 168 h", "value": "< 5.00"}, {"measurement": "pIC50", "setting": "[4]; COLO678, 72 h", "value": "< 5.00"}, {"measurement": "pIC50", "setting": "[4]; COLO678, 120 h", "value": "< 5.00"}, {"measurement": "pIC50", "setting": "[4]; COLO678, 168 h", "value": "< 5.00"}, {"measurement": "pIC50", "setting": "[5]; EFO21, 72 h", "value": "< 5.00"}, {"measurement": "pIC50", "setting": "[5]; EFO21, 120 h", "value": "< 5.00"}, {"measurement": "pIC50", "setting": "[5]; EFO21, 168 h", "value": "< 5.00"}, {"measurement": "pIC50", "setting": "[6]; HEK293, 72 h", "value": "< 5.00"}, {"measurement": "pIC50", "setting": "[6]; HEK293, 120 h", "value": "< 5.00"}, {"measurement": "pIC50", "setting": "[6]; HEK293, 168 h", "value": "< 5.00"}, {"measurement": "pIC50", "setting": "[7]; HepG2, 72 h", "value": "< 5.00"}, {"measurement": "pIC50", "setting": "[7]; HepG2, 120 h", "value": "< 5.00"}, {"measurement": "pIC50", "setting": "[7]; HepG2, 168 h", "value": "< 5.00"}, {"measurement": "pIC50", "setting": "[8]; HT1080, 72 h", "value": "< 5.00"}, {"measurement": "pIC50", "setting": "[8]; HT1080, 120 h", "value": "< 5.00"}, {"measurement": "pIC50", "setting": "[8]; HT1080, 168 h", "value": "< 5.00"}, {"measurement": "pIC50", "setting": "[9]; IGROV1, 72 h", "value": "< 5.00"}, {"measurement": "pIC50", "setting": "[9]; IGROV1, 120 h", "value": "< 5.00"}, {"measurement": "pIC50", "setting": "[9]; IGROV1, 168 h", "value": "< 5.00"}, {"measurement": "pIC50", "setting": "[10]; J82, 72 h", "value": "< 5.00"}, {"measurement": "pIC50", "setting": "[10]; J82, 120 h", "value": "< 5.00"}, {"measurement": "pIC50", "setting": "[10]; J82, 168 h", "value": "< 5.00"}, {"measurement": "pIC50", "setting": "[11]; JIMT1, 72 h", "value": "< 5.00"}, {"measurement": "pIC50", "setting": "[11]; JIMT1, 120 h", "value": "< 5.00"}, {"measurement": "pIC50", "setting": "[11]; JIMT1, 168 h", "value": "< 5.00"}, {"measurement": "pIC50", "setting": "[12]; MDAMB436, 72 h", "value": "< 5.00"}, {"measurement": "pIC50", "setting": "[12]; MDAMB436, 120 h", "value": "< 5.00"}, {"measurement": "pIC50", "setting": "[12]; MDAMB436, 168 h", "value": "< 5.00"}, {"measurement": "pIC50", "setting": "[13]; MHHES1, 72 h", "value": "< 5.00"}, {"measurement": "pIC50", "setting": "[13]; MHHES1, 120 h", "value": "< 5.00"}, {"measurement": "pIC50", "setting": "[13]; MHHES1, 168 h", "value": "< 5.00"}, {"measurement": "pIC50", "setting": "[14]; MIAPACA2, 72 h", "value": "< 5.00"}, {"measurement": "pIC50", "setting": "[14]; MIAPACA2, 120 h", "value": "< 5.00"}, {"measurement": "pIC50", "setting": "[14]; MIAPACA2, 168 h", "value": "< 5.00"}, {"measurement": "pIC50", "setting": "[15]; MV4-11, 72 h", "value": 5.61}, {"measurement": "pIC50", "setting": "[15]; MV4-11, 120 h", "value": 6.60}, {"measurement": "pIC50", "setting": "[15]; MV4-11, 168 h", "value": 5.76}, {"measurement": "pIC50", "setting": "[16]; OVCAR3, 72 h", "value": "< 5.00"}, {"measurement": "pIC50", "setting": "[16]; OVCAR3, 120 h", "value": "< 5.00"}, {"measurement": "pIC50", "setting": "[16]; OVCAR3, 168 h", "value": "< 5.00"}, {"measurement": "pIC50", "setting": "[17]; OVCAR4, 72 h", "value": "< 5.00"}, {"measurement": "pIC50", "setting": "[17]; OVCAR4, 120 h", "value": "< 5.00"}, {"measurement": "pIC50", "setting": "[17]; OVCAR4, 168 h", "value": "< 5.00"}, {"measurement": "pIC50", "setting": "[18]; 72 h", "value": "< 5.00"}, {"measurement": "pIC50", "setting": "[18]; 120 h", "value": "< 5.00"}, {"measurement": "pIC50", "setting": "[18]; 168 h", "value": "< 5.00"}, {"measurement": "pIC50", "setting": "[19]; 72 h", "value": "< 5.00"}, {"measurement": "pIC50", "setting": "[19]; 120 h", "value": "< 5.00"}, {"measurement": "pIC50", "setting": "[19]; 168 h", "value": "< 5.00"}, {"measurement": "pIC50", "setting": "[20]; SF295, 72 h", "value": "< 5.00"}, {"measurement": "pIC50", "setting": "[20]; SF295, 120 h", "value": "< 5.00"}, {"measurement": "pIC50", "setting": "[20]; SF295, 168 h", "value": "< 5.00"}, {"measurement": "pIC50", "setting": "[21]; SKLMS1, 72 h", "value": "< 5.00"}, {"measurement": "pIC50", "setting": "[21]; SKLMS1, 120 h", "value": "< 5.00"}, {"measurement": "pIC50", "setting": "[21]; SKLMS1, 168 h", "value": "< 5.00"}, {"measurement": "pIC50", "setting": "[22]; SKMEL5, 72 h", "value": "< 5.00"}, {"measurement": "pIC50", "setting": "[22]; SKMEL5, 120 h", "value": "< 5.00"}, {"measurement": "pIC50", "setting": "[22]; SKMEL5, 168 h", "value": "< 5.00"}, {"measurement": "pIC50", "setting": "[23]; SKOV3, 72 h", "value": "< 5.00"}, {"measurement": "pIC50", "setting": "[23]; SKOV3, 120 h", "value": "< 5.00"}, {"measurement": "pIC50", "setting": "[23]; SKOV3, 168 h", "value": "< 5.00"}, {"measurement": "pIC50", "setting": "[24]; SNB75, 72 h", "value": "< 5.00"}, {"measurement": "pIC50", "setting": "[24]; SNB75, 120 h", "value": "< 5.00"}, {"measurement": "pIC50", "setting": "[24]; SNB75, 168 h", "value": "< 5.00"}, {"measurement": "pIC50", "setting": "[25]; 72 h", "value": "< 5.00"}, {"measurement": "pIC50", "setting": "[25]; 120 h", "value": "< 5.00"}, {"measurement": "pIC50", "setting": "[25]; 168 h", "value": "< 5.00"}, {"measurement": "pIC50", "setting": "[26]; UO31, 72 h", "value": "< 5.00"}, {"measurement": "pIC50", "setting": "[26]; UO31, 120 h", "value": "< 5.00"}, {"measurement": "pIC50", "setting": "[26]; UO31, 168 h", "value": "< 5.00"}]}
